US20150335657A1, “Methods for Modulating Sirtuin Enzymes” (The Trustees of Princeton University, priority 2014, published 2015)

Columns and labels:
[1] = Tetrazolium-based cell viability assay (cytotoxicity); settings: human
SIRT3 = target: T1, SIRT3 (Homo sapiens, UniProt Q9NTG7); assay: Sirtuin deacetylase enzyme activity assay (Cayman Chemical), compound screen; type: biochemical; settings: compound at 50 μM; Z-score of change in fluorescent signal; + increase, − decrease
T1 construct: purchased Cayman Chemical
T1 sequence (Q9NTG7 1-399): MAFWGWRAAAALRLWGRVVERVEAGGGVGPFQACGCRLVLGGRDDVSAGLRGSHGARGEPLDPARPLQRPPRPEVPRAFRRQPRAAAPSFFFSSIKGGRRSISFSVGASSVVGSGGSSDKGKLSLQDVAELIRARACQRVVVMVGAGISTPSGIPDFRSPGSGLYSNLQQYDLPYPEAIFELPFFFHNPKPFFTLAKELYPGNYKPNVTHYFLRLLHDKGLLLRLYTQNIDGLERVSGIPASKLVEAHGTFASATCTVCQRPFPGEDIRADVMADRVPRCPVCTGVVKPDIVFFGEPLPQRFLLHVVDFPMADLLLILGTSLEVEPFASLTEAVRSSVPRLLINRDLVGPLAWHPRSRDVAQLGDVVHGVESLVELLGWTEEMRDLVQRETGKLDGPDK
From the text: (§1) Sirtuins have been identified as innate viral restriction factors and it has been previously shown that drugs that modulate the activity of these enzymes block the production of multiple viruses in culture (see, e.g., WO 2012/106509). Sirtuins are NAD-dependent enzymes that regulate the activity of target proteins by post-translational modifications and thereby control key cellular events (see, e.g., Haigis and Sinclair (2010) Ann Rev Pathol Mech Dis 5:253-95). SIRT1, SIRT2, SIRT3 and SIRT6 have shown a detectable deacetylase activity in well-established biochemical assays that utilize recombinant SIRT1, SIRT2, SIRT3, and SIRT6 enzymes and fluorophore-conjugated acetyl-peptides. As described in the Examples below, the deacetylase activity of these sirtuins were used as a surrogate to identify compounds having broad-range antiviral activity.
(§2) A publically disclosed, small molecule library consisting of approximately 13,000 compounds was screened using a commercially available (Cayman Chemical) enzyme activity assay. Deacetylase activity of sirtuins SIRT1, SIRT2, SIRT3, and SIRT6 was used as a surrogate to identify compounds with the potential for having broad-range antiviral activity. The compounds were tested at a single concentration (50 μM) in microtiter plates and their activity against the four sirtuins was recorded as a change in fluorescent signal intensity. […] Activation of sirtuin activity generated positive Z-scores and inhibition of sirtuin activity produced negative Z-scores.

SIRT6 = target: T2, SIRT6 (Homo sapiens, UniProt Q8N6T7); assay: as above; type: biochemical; settings: compound at 50 μM; Z-score of change in fluorescent signal; + increase, − decrease
T2 construct: purchased Cayman Chemical
From the text: as §1, §2

SIRT2 = target: T3, SIRT2 (Homo sapiens, UniProt Q8IXJ6); assay: as above; type: biochemical; settings: compound at 50 μM; Z-score of change in fluorescent signal; + increase, − decrease
T3 construct: purchased Cayman Chemical
T3 sequence (Q8IXJ6 1-389): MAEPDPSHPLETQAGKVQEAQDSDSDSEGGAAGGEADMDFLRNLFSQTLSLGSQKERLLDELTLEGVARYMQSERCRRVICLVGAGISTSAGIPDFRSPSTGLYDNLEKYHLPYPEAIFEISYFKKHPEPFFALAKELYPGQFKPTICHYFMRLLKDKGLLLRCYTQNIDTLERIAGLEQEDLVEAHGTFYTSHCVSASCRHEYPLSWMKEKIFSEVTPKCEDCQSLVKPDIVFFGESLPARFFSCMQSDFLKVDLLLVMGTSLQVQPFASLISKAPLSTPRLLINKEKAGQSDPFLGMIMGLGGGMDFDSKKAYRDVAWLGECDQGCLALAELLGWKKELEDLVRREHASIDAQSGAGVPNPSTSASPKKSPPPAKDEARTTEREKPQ
From the text: as §1, §2

SIRT1 = target: T4, SIRT1 (Homo sapiens, UniProt Q96EB6); assay: as above; type: biochemical; settings: compound at 50 μM; Z-score of change in fluorescent signal; + increase, − decrease
T4 construct: purchased Cayman Chemical
T4 sequence (Q96EB6 1-747): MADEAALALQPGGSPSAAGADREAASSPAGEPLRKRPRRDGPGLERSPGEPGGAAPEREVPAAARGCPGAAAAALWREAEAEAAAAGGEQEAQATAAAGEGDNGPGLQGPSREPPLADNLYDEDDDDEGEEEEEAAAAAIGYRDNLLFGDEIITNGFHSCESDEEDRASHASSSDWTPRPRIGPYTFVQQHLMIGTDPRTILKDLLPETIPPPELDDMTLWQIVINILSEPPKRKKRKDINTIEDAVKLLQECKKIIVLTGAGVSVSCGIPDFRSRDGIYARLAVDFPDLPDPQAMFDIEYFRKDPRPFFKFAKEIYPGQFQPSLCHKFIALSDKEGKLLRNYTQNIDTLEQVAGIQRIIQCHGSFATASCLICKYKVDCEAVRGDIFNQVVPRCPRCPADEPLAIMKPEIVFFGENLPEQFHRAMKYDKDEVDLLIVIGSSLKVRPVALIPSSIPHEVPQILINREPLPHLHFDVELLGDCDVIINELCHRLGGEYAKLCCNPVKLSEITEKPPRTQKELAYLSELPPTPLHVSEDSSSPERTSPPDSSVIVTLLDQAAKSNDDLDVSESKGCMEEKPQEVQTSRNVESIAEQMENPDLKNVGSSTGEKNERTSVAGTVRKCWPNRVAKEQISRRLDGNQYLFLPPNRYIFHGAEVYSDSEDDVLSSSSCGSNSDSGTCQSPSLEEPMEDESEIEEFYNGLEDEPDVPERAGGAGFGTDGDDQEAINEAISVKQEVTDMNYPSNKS
From the text: as §1, §2

[2] = system: human cytomegalovirus (HCMV) AD169 strain; assay: Antiviral activity against HCMV in MRC5 fibroblasts (virus yield, fluorescent focus assay); type: cell-based; settings: Human betaherpesvirus 5, HCMV AD169, 1 infectious unit/cell, treated 2 h after infection, virus in medium at 96 h

T2 sequence (Q8N6T7 whole entry): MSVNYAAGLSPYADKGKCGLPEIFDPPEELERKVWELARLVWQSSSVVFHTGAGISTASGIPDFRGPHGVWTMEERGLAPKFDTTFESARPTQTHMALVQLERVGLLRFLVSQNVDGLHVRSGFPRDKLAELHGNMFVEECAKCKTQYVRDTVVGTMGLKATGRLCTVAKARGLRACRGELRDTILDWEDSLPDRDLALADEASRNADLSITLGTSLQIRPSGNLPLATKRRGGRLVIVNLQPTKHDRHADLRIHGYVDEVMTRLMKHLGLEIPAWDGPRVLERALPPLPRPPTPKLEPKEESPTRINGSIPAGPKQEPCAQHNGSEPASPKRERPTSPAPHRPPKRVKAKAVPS

Row | SMILES | CC50 at 96 h [1] [µM] | SIRT3 (change in sirtuin deacetylase activity, Z-score class) (SIRT3) | SIRT6 (change in sirtuin deacetylase activity, Z-score class) (SIRT6) | SIRT2 (change in sirtuin deacetylase activity, Z-score class) (SIRT2) | SIRT1 (change in sirtuin deacetylase activity, Z-score class) (SIRT1) | IC50 [2] [µM] | IC90 [2] [µM]
1 | CC(c1ccccc1Cl)C1CN(C2CCC(O)CC2)S(=O)(=O)c2c(F)cccc2O1 (stereo not shown) | > 50 | na (−2 ≦ Z-score < 2 = no activity (na)) | +++ (Z-score ≧ 3 = +++) | na (−2 ≦ Z-score < 2 = no activity (na)) | na (−2 ≦ Z-score < 2 = no activity (na)) | 2.33 | 31.3
2 | CNC(=O)c1cccc(CN(CCC(C)C(C)C)S(=O)(=O)c2c(C)noc2C)c1 (stereo not shown) | 25 to 50 | na (−2 ≦ Z-score < 2 = no activity (na)) | +++ (Z-score ≧ 3 = +++) | na (−2 ≦ Z-score < 2 = no activity (na)) | na (−2 ≦ Z-score < 2 = no activity (na)) | 10.2 | 32.8
3 | CC(c1ccncc1)c1cnc(N2CCc3ccccc3C2)s1 (stereo not shown) | > 50 | na (−2 ≦ Z-score < 2 = no activity (na)) | na (−2 ≦ Z-score < 2 = no activity (na)) | −−− (Z-score ≦ −3 = −−−) | na (−2 ≦ Z-score < 2 = no activity (na)) | 28.3 | 41.9
4 | CC(CCNc1cccnc1)c1c[nH]c2ccccc12 (stereo not shown) | > 50 | na (−2 ≦ Z-score < 2 = no activity (na)) | na (−2 ≦ Z-score < 2 = no activity (na)) | +++ (Z-score ≧ 3 = +++) | na (−2 ≦ Z-score < 2 = no activity (na)) | 15.8 | 43.1
5 | COc1ccc2[nH]cc(C(C)CCNc3cccnc3)c2c1 (stereo not shown) | > 50 | na (−2 ≦ Z-score < 2 = no activity (na)) | na (−2 ≦ Z-score < 2 = no activity (na)) | +++ (Z-score ≧ 3 = +++) | na (−2 ≦ Z-score < 2 = no activity (na)) | 17.4 | 46.5
6 | CC(C)c1cc(N)n(C(C(=O)O)C(C)c2ccccc2Cl)n1 (stereo not shown) | > 50 | na (−2 ≦ Z-score < 2 = no activity (na)) | na (−2 ≦ Z-score < 2 = no activity (na)) | −− (−3 < Z-score ≦ −2 = −−) | −− (−3 < Z-score ≦ −2 = −−) | 25.5 | 57.9
7 | CC(c1ccnn1C)C(CN1CCN(C)CC1)Oc1ccc(C#N)cn1 (stereo not shown) | > 50 | na (−2 ≦ Z-score < 2 = no activity (na)) | +++ (Z-score ≧ 3 = +++) | na (−2 ≦ Z-score < 2 = no activity (na)) | −− (−3 < Z-score ≦ −2 = −−) | 21.1 | 42.4
8 | COc1ccccc1C1C(=O)N(C(C)C)CC1O (stereo not shown) | > 50 | na (−2 ≦ Z-score < 2 = no activity (na)) | na (−2 ≦ Z-score < 2 = no activity (na)) | +++ (Z-score ≧ 3 = +++) | na (−2 ≦ Z-score < 2 = no activity (na)) | 23.9 | 47.2
9 | COc1ccc(C(C)C(CN2CCc3ccccc3C2)n2nc(-c3cccnc3)cc2N)cc1 (stereo not shown) | > 50 | na (−2 ≦ Z-score < 2 = no activity (na)) | na (−2 ≦ Z-score < 2 = no activity (na)) | −− (−3 < Z-score ≦ −2 = −−) | −−− (Z-score ≦ −3 = −−−) | 27.7 | 55.7
10 | CC(c1cnc2ccccc2c1)C(F)CNc1cnc2ccccc2c1 (stereo not shown) | > 50 | na (−2 ≦ Z-score < 2 = no activity (na)) | +++ (Z-score ≧ 3 = +++) | na (−2 ≦ Z-score < 2 = no activity (na)) | na (−2 ≦ Z-score < 2 = no activity (na)) | 6.89 | 17.6
11 | Cc1ccccc1C(C)C(CO)NC(=O)c1cn(C)cn1 (stereo not shown) | > 50 | na (−2 ≦ Z-score < 2 = no activity (na)) | −− (−3 < Z-score ≦ −2 = −−) | −−− (Z-score ≦ −3 = −−−) | −−− (Z-score ≦ −3 = −−−) | 15.8 | 41.9
12 | CC(c1cnc2ccccc2c1)C(F)C1N(Cc2ccccc2)C(=O)c2cccnc2N1C (stereo not shown) | > 50 | +++ (Z-score ≧ 3 = +++) | +++ (Z-score ≧ 3 = +++) | +++ (Z-score ≧ 3 = +++) | +++ (Z-score ≧ 3 = +++) | 1.74 | 16.1
13 | CCOc1cc(C(C)C)n(C(CNc2cnc3ccccc3c2)C(C)c2cccnc2C)n1 (stereo not shown) | > 50 | +++ (Z-score ≧ 3 = +++) | +++ (Z-score ≧ 3 = +++) | na (−2 ≦ Z-score < 2 = no activity (na)) | +++ (Z-score ≧ 3 = +++) | 9.32 | 41.3
